Results as given in patent US20190151329A1, “THERAPEUTIC USE OF DIAMINOPHENOTHIAZINES” (WisTa Laboratories Ltd., priority 2007, published 2019).
Values joined by “and” are separate entries in the source; they are usually repeats but may differ in a detail not shown here. Equal entries are not always repeated. Where two headings read alike, the source gives them in different places.

Experiments:
[1] = rats; IV; within 2 minutes; cited from earlier work
[2] = cited from earlier work; for Blood Ox-MT concentration: human whole blood
[3] = cited from earlier work
[4] = cited from earlier work; for L-MT urinary excretion rate / Ox-MT urinary excretion rate: 10 mg MTC oral
[5] = Pig single oral dose pharmacokinetic study (blood and brain); assay type: in vivo, pigs; details: single oral 20 mg/kg
Method: Finally, a comparison was made between the compartment predictions and the results from an oral study in which pigs were administered a single 20 mg/kg dose, and brain levels of MT were determined. […] Blood (0.5, 1, 2, 4, 8, 12, 24 and 48 h) and urine (1, 2, 3, 4, 5, 6, 7, 8, 12, and 24 h) were collected at regular timepoints up to 48 hrs. Two animals were sacrificed at each of 1, 8, 24 and 48 h post dose and brain samples retained. Pharmacokinetic evaluation of the free base of MTC was performed on whole blood and brain tissue samples. Two batches of brain tissue sample were extracted for each animal and analysed essentially as described by Peter et al (2000).
Brain tissue (500 mg) was vortexed and then extracted with dichloroethane (5 ml) and the organic phase taken to dryness under nitrogen. The extract was taken up with methanol and separated by reverse-phase HPLC with ultraviolet detection.

[6] = repeat dose 15 mg/24 hr, day 14
[7] = repeat dose 15 mg/24 hr, day 21
[8] = repeat dose 300 mg/24 hr, day 7
[9] = repeat dose 300 mg/24 hr, day 14
[10] = repeat dose 300 mg/24 hr, day 21
[11] = human, time 0.5 hr (mid-time 0.25 hr)
[12] = human, time 1 hr (mid-time 0.75 hr)
[13] = human, time 2 hr (mid-time 1.5 hr)
[14] = human, time 3 hr (mid-time 2.5 hr)
[15] = human, time 4 hr (mid-time 3.5 hr)
[16] = human, time 6 hr (mid-time 5 hr)
[17] = human, time 9 hr (mid-time 7.5 hr)
[18] = human, time 24 hr (mid-time 16.5 hr)
[19] = human, time 33 hr (mid-time 28.5 hr)
[20] = human, time 48 hr (mid-time 40.5 hr)
[21] = human, time 57 hr (mid-time 52.5 hr)
[22] = human, time 72 hr (mid-time 64.5 hr)
[23] = human, time 81 hr (mid-time 76.5 hr)
[24] = human, time 96 hr (mid-time 88.5 hr)
[25] = human, time 105 hr (mid-time 100.5 hr)
[26] = human, time 120 hr (mid-time 112.5 hr)
[27] = human, 10 mg oral, non-compartmental secondary parameter
[28] = human, 10 mg oral, urinary excretion data

## CN(C)c1ccc2nc3ccc(=[N+](C)C)cc-3sc2c1 [MTC, methylthioninium chloride]
[1]
  dose recovered from the major organs: approximately 25%
[2]; from analysis of blood concentration data
  terminal elimination half-life deduced by Peter et al.: 5.5 to 6.3 h
[2]; 100 mg MTC IV, 0.09 hr
  Blood Ox-MT concentration: 6.06 µmol/L
[2]; 100 mg MTC IV, 0.15 hr
  Blood Ox-MT concentration: 3.32 µmol/L
[2]; 100 mg MTC IV, 0.24 hr
  Blood Ox-MT concentration: 1.73 µmol/L
[2]; 100 mg MTC IV, 0.33 hr
  Blood Ox-MT concentration: 1.65 µmol/L
[2]; 100 mg MTC IV, 0.5 hr
  Blood Ox-MT concentration: 0.78 µmol/L
[2]; 100 mg MTC IV, 0.65 hr
  Blood Ox-MT concentration: 0.61 µmol/L
[2]; 100 mg MTC IV, 0.83 hr
  Blood Ox-MT concentration: 0.39 µmol/L
[2]; 100 mg MTC IV, 1.01 hr
  Blood Ox-MT concentration: 0.41 µmol/L
[2]; 100 mg MTC IV, 1.99 hr
  Blood Ox-MT concentration: 0.26 µmol/L
[2]; 100 mg MTC IV, 4 hr
  Blood Ox-MT concentration: 0.18 µmol/L
[2]; 100 mg MTC oral (mean of with and without Mesna), 0 hr
  Blood Ox-MT concentration: 0 µmol/L
[2]; 100 mg MTC oral (mean of with and without Mesna), 0.09 hr
  Blood Ox-MT concentration: 0.00064 µmol/L
[2]; 100 mg MTC oral (mean of with and without Mesna), 0.15 hr
  Blood Ox-MT concentration: 0.0011 µmol/L
[2]; 100 mg MTC oral (mean of with and without Mesna), 0.24 hr
  Blood Ox-MT concentration: 0.0064 µmol/L
[2]; 100 mg MTC oral (mean of with and without Mesna), 0.33 hr
  Blood Ox-MT concentration: 0.017 µmol/L
[2]; 100 mg MTC oral (mean of with and without Mesna), 0.5 hr
  Blood Ox-MT concentration: 0.041 µmol/L
[2]; 100 mg MTC oral (mean of with and without Mesna), 0.83 hr
  Blood Ox-MT concentration: 0.055 µmol/L
[2]; 100 mg MTC oral (mean of with and without Mesna), 1.01 hr
  Blood Ox-MT concentration: 0.064 µmol/L
[2]; 100 mg MTC oral (mean of with and without Mesna), 1.99 hr
  Blood Ox-MT concentration: 0.069 µmol/L
[2]; 100 mg MTC oral (mean of with and without Mesna), 4 hr
  Blood Ox-MT concentration: 0.038 µmol/L
[2]; human, 100 mg MTC, IV
  % of dose excreted in urine at 24 hr: 28.6 % of dose
  AUC: 0.134 µmol/min/mL
  Cl (clearance): 3 L/h
  Estimated elimination T½: blood (1-4 hr): 5.25 h
[2]; human, 100 mg MTC, Oral
  % of dose excreted in urine at 24 hr: 18.6 % of dose
  AUC: 0.011 µmol/min/mL
  Estimated elimination T½: urine (4-24 hr): 6.6 h
[2]; human, did not differ between oral and IV dosing
  fraction of total MT excreted in the urine in the L-MB form: approximately ⅓
[3]; repeat dose 15 mg/24 hr
  24 hr urinary excretion, L-MT (summary line): 7.2 mg
  24 hr urinary excretion, Ox-MT (summary line): 5.8 mg
  % of total urinary excretion, L-MT: 55.3%
  % of total urinary excretion, Ox-MT: 44.8%
  F (apparent bioavailability), L-MT: 0.48
  F (apparent bioavailability), Ox-MT: 0.39
[3]; repeat dose 15 mg/24 hr, day 7
  24-hr urinary excretion, L-MT: 7.2 mg
  24-hr urinary excretion, Ox-MT: 6.1 mg
[3]; [6]
  24-hr urinary excretion, L-MT: 8 mg
  24-hr urinary excretion, Ox-MT: 5.3 mg
[3]; [7]
  24-hr urinary excretion, L-MT: 6.4 mg
  24-hr urinary excretion, Ox-MT: 6.1 mg
[3]; repeat dose 300 mg/24 hr
  24 hr urinary excretion, L-MT (summary line): 69.2 mg
  24 hr urinary excretion, Ox-MT (summary line): 43.4 mg
  % of total urinary excretion, L-MT: 61.5%
  % of total urinary excretion, Ox-MT: 38.6%
  F (apparent bioavailability), L-MT: 0.23
  F (apparent bioavailability), Ox-MT: 0.14
[3]; [8]
  24-hr urinary excretion, L-MT: 75.6 mg
  24-hr urinary excretion, Ox-MT: 43.9 mg
[3]; [9]
  24-hr urinary excretion, L-MT: 71.6 mg
  24-hr urinary excretion, Ox-MT: 41.1 mg
[3]; [10]
  24-hr urinary excretion, L-MT: 60.4 mg
  24-hr urinary excretion, Ox-MT: 45.2 mg
[3]; single dose 25 mg
  % of total urinary excretion, L-MT: 15.8%
  % of total urinary excretion, Ox-MT: 84.2%
  F (apparent bioavailability), L-MT: 0.11
  F (apparent bioavailability), Ox-MT: 0.60
  F (apparent bioavailability), Total-MT: 0.71
  urinary excretion, L-MT: 2.8 mg
  urinary excretion, Ox-MT: 14.9 mg
  urinary excretion, Total-MT: 17.7 mg
[3]; single dose 50 mg
  % of total urinary excretion, L-MT: 8.8%
  % of total urinary excretion, Ox-MT: 91.2%
  F (apparent bioavailability), L-MT: 0.054
  F (apparent bioavailability), Ox-MT: 0.56
  F (apparent bioavailability), Total-MT: 0.62
  urinary excretion, L-MT: 2.7 mg
  urinary excretion, Ox-MT: 28.1 mg
  urinary excretion, Total-MT: 30.8 mg
[3]; single dose 100 mg
  % of total urinary excretion, L-MT: 15.2%
  % of total urinary excretion, Ox-MT: 84.8%
  F (apparent bioavailability), L-MT: 0.060
  F (apparent bioavailability), Ox-MT: 0.34
  F (apparent bioavailability), Total-MT: 0.40
  urinary excretion, L-MT: 6 mg
  urinary excretion, Ox-MT: 33.5 mg
  urinary excretion, Total-MT: 39.5 mg
[4]; from urinary excretion data
  terminal elimination half-life deduced by DiSanto and Wagner: 15 to 16.5 h
[4]; [11]
  L-MT urinary excretion rate: 14.01 µg/h
  Ox-MT urinary excretion rate: 2.31 µg/h
[4]; [12]
  L-MT urinary excretion rate: 385.06 µg/h
  Ox-MT urinary excretion rate: 20.59 µg/h
[4]; [13]
  L-MT urinary excretion rate: 659.14 µg/h
  Ox-MT urinary excretion rate: 38.66 µg/h
[4]; [14]
  L-MT urinary excretion rate: 474.29 µg/h
  Ox-MT urinary excretion rate: 50.56 µg/h
[4]; [15]
  L-MT urinary excretion rate: 384.43 µg/h
  Ox-MT urinary excretion rate: 40.66 µg/h
[4]; [16]
  L-MT urinary excretion rate: 290.50 µg/h
  Ox-MT urinary excretion rate: 53.01 µg/h
[4]; [17]
  L-MT urinary excretion rate: 120.29 µg/h
  Ox-MT urinary excretion rate: 42.86 µg/h
[4]; [18]
  L-MT urinary excretion rate: 78.72 µg/h
  Ox-MT urinary excretion rate: 37.99 µg/h
[4]; [19]
  L-MT urinary excretion rate: 41.87 µg/h
  Ox-MT urinary excretion rate: 24.34 µg/h
[4]; [20]
  L-MT urinary excretion rate: 26.77 µg/h
  Ox-MT urinary excretion rate: 11.02 µg/h
[4]; [21]
  L-MT urinary excretion rate: 14.11 µg/h
  Ox-MT urinary excretion rate: 5.00 µg/h
[4]; [22]
  L-MT urinary excretion rate: 7.88 µg/h
  Ox-MT urinary excretion rate: 4.98 µg/h
[4]; [23]
  L-MT urinary excretion rate: 6.39 µg/h
  Ox-MT urinary excretion rate: 2.53 µg/h
[4]; [24]
  L-MT urinary excretion rate: 3.09 µg/h
  Ox-MT urinary excretion rate: 1.74 µg/h
[4]; [25]
  L-MT urinary excretion rate: 3.02 µg/h
  Ox-MT urinary excretion rate: 1.23 µg/h
[4]; [26]
  L-MT urinary excretion rate: 1.91 µg/h
  Ox-MT urinary excretion rate: 0.88 µg/h
[4]; human, 10 mg oral
  MRT, Free (Ox-MTC): 24.5000 h
  MRT, Leuco (L-MT): 16.8774 h
  T½ (distribution), Free (Ox-MTC): 0.5930 h
  T½ (distribution), Leuco (L-MT): 1.1530 h
  T½ (elimination), Free (Ox-MTC): 15.0364 h
  T½ (elimination), Leuco (L-MT): 16.4953 h
  Urinary excretion (% of total), Free (Ox-MT): 23% and 22.94%
  Urinary excretion (% of total), Leuco (L-MT): 77% and 77.06%
  total urinary recovery: 65 % of dose
[4]; [27]
  AUC, Leuco (L-MT): 4981.55 µg·h
  CI, Free (Ox-MTC): 6.7420 L/h
  CI, Leuco (L-MT): 2.0074 L/h
  F (calculated bioavailability), Free (Ox-MTC): 0.1483
  F (calculated bioavailability), Leuco (L-MT): 0.4982
  Vc, Free (Ox-MTC): 4.4188 L
  Vc, Leuco (L-MT): 4.1152 L
[4]; [28]
  K12, Free (Ox-MTC): 0.7506
  K12, Leuco (L-MT): 0.2962
  K21, Free (Ox-MTC): 0.2381
  Kel (terminal elimination rate constant), Free (Ox-MTC): 0.2263
  Kel (terminal elimination rate constant), Leuco (L-MT): 0.2430
  Tlag, Free (Ox-MTC): 0.2078 h
  Tlag, Leuco (L-MT): 0.2381 h
  VcF (Vc × F), Leuco (L-MT): 8.2607 L
  terminal elimination half-life (Ox-MT and L-MT comparable): ~16 h
[4]; in vivo, po
  corrected apparent central volume (Ox-MT and L-MT comparable): 4 L
[5]; brain, read-out: terminal elimination half-life, brain (converted)
  half-life: 23.5 h
[5]; whole blood, read-out: terminal elimination half-life, blood (converted)
  half-life: 23.5 h
